Measurements taken from patent US8163724B2, “Glucocorticosteroids, processes for their preparation, pharmaceutical compositions containing them and their use in therapy” (AstraZeneca AB, priority 2007, dated 2012).

Target: T1, recombinant human GR (Homo sapiens, UniProt P04150)
T1 construct: purchased Panvera/Invitrogen P2812 (kit P2893)
T1 sequence (P04150 1-777): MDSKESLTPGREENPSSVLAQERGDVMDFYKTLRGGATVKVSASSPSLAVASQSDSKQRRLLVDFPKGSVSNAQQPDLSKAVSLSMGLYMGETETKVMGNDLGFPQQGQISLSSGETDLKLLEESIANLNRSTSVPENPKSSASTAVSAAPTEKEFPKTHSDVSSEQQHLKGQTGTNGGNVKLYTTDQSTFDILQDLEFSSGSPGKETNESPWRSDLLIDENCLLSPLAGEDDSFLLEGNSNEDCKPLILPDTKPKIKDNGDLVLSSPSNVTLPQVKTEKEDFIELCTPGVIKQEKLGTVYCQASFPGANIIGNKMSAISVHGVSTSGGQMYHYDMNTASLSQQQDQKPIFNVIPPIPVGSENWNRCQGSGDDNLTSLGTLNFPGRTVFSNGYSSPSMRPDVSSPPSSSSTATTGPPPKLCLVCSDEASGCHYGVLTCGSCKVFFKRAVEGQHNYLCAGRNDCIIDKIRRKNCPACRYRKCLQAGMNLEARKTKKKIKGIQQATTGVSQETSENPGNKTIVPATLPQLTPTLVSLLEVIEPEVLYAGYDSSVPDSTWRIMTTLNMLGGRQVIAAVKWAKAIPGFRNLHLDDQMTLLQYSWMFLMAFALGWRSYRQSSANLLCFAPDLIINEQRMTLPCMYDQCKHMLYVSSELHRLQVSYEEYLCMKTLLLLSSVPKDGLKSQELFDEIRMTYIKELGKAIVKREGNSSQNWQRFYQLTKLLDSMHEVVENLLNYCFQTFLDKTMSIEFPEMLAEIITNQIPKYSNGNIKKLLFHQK
Test: Human Glucocorticoid Receptor (GR) Assay (fluorescence polarization, Panvera/Invitrogen kit)
Assay type: binding
Conditions: fluorescence polarization; GS Red tracer; 2 hours at room temperature; 100% control 10 μM Dexamethasone; read-out: Inhibition of GR binding, IC50
Experimental: Human Glucocorticoid Receptor (GR) Assay
The assay is based on a commercial kit from Panvera/Invitrogen (Part number P2893). The assay technology is fluorescence polarization. […] The GR and Stabilizing Peptide reagents are stored at −70° C. while the GS Red is stored at −20° C. Also included in the kit are 1M DTT (Panvera, Part number P2325, stored at −20° C.) and GR Screening buffer 10× (Panvera, Part number P2814, stored at −70° C. initially but once thawed stored at room temperature). Avoid repeated freeze/thaws for all reagents. The GR Screening buffer 10× comprises 100 mM potassium phosphate, 200 mM sodium molybdate, 1 mM EDTA and 20% DMSO.
0% control was 100% DMSO and 100% control was 10 μM Dexamethasone. Background solution (8 μL; assay buffer 10×, Stabilizing Peptide, DTT and ice cold MQ water) was added to the background wells. GS Red solution (7 μL; assay buffer 10×, Stabilizing Peptide, DTT, GS Red and ice cold water) was added to all wells except background wells. GR solution (7 μL; assay buffer 10×, Stabilizing Peptide, DTT, GR and ice cold water) was added to all wells. The plate was sealed and incubated in a dark at room temperature for 2 hours.

Compound | IC50
C[C@]12Cc3cnn(-c4ccc(F)cc4)c3C=C1CC[C@@H]1[C@@H]2[C@@H](O)C[C@@]2(C)[C@H]1CC[C@]2(OC(=O)[C@H]1CCCO1)C(=O)SCC#N (single isomer, unassigned) [Example 128] | 3.8 nM
C[C@]12Cc3cnn(-c4ccc(F)cc4)c3C=C1CC[C@@H]1[C@@H]2[C@@H](O)C[C@@]2(C)[C@H]1CC[C@]2(OC(=O)C1CCCCO1)C(=O)SCC#N (single isomer, unassigned) [Example 136] | 4.5 nM
C[C@]12Cc3cnn(-c4ccc(F)cc4)c3C=C1CC[C@@H]1[C@@H]2[C@@H](O)C[C@@]2(C)[C@H]1CC[C@]2(OC(=O)C1CCCOC1)C(=O)SCC#N (single isomer, unassigned) [Example 138] | 3.8 nM
Cc1ncsc1C(=O)O[C@]1(C(=O)SCF)CC[C@H]2[C@@H]3CCC4=Cc5c(cnn5-c5ccc(F)cc5)C[C@]4(C)[C@H]3[C@@H](O)C[C@@]21C [Example 1, (1R,3aS,3bS,10aR,10bS,11S,12aS)-1-{[(Fluoromethyl)thio]carbonyl}-7-(4-fluorophenyl)-11-hydroxy-10a,12a-dimethyl-1,2,3,3a,3b,4,5,7,10,10a,10b,11,12,12a-tetradecahydrocyclopenta[5,6]naphtho[1,2-f]indazol-1-yl 4-methyl-1,3-thiazole-5-carboxylate] | 7.6 nM
Cc1ncsc1C(=O)O[C@]1(C(=O)SCC#N)CC[C@H]2[C@@H]3CCC4=Cc5c(cnn5-c5ccc(F)cc5)C[C@]4(C)[C@H]3[C@@H](O)C[C@@]21C [Example 2, (1R,3aS,3bS,10aR,10bS,11S,12aS)-1-{[(Cyanomethyl)thio]carbonyl}-7-(4-fluorophenyl)-11-hydroxy-10a,12a-dimethyl-1,2,3,3a,3b,4,5,7,10,10a,10b,11,12,12a-tetradecahydrocyclopenta[5,6]naphtho[1,2-f]indazol-1-yl 4-methyl-1,3-thiazole-5-carboxylate] | 7.4 nM
CCSC(=O)[C@@]1(OC(=O)c2scnc2C)CC[C@H]2[C@@H]3CCC4=Cc5c(cnn5-c5ccc(F)cc5)C[C@]4(C)[C@H]3[C@@H](O)C[C@@]21C [Example 3, (1R,3aS,3bS,10aR,10bS,11S,12aS)-1-[(Ethylthio)carbonyl]-7-(4-fluorophenyl)-11-hydroxy-10a,12a-dimethyl-1,2,3,3a,3b,4,5,7,10,10a,10b,11,12,12a-tetradecahydrocyclopenta[5,6]naphtho[1,2-f]indazol-1-yl 4-methyl-1,3-thiazole-5-carboxylate] | 15 nM
Cc1nnsc1C(=O)O[C@]1(C(=O)SCF)CC[C@H]2[C@@H]3CCC4=Cc5c(cnn5-c5ccc(F)cc5)C[C@]4(C)[C@H]3[C@@H](O)C[C@@]21C [Example 4, (1R,3aS,3bS,10aR,10bS,11S,12aS)-1-{[(Fluoromethyl)thio]carbonyl}-7-(4-fluorophenyl)-11-hydroxy-10a,12a-dimethyl-1,2,3,3a,3b,4,5,7,10,10a,10b,11,12,12a-tetradecahydrocyclopenta[5,6]naphtho[1,2-f]indazol-1-yl 4-methyl-1,2,3-thiadiazole-5-carboxylate] | 5.9 nM
CCSC(=O)[C@@]1(OC(=O)c2snnc2C)CC[C@H]2[C@@H]3CCC4=Cc5c(cnn5-c5ccc(F)cc5)C[C@]4(C)[C@H]3[C@@H](O)C[C@@]21C [Example 5, (1R,3aS,3bS,10aR,10bS,11S,12aS)-1-[(Ethylthio)carbonyl]-7-(4-fluorophenyl)-11-hydroxy-10a,12a-dimethyl-1,2,3,3a,3b,4,5,7,10,10a,10b,11,12,12a-tetradecahydrocyclopenta[5,6]naphtho[1,2-f]indazol-1-yl 4-methyl-1,2,3-thiadiazole-5-carboxylate] | 15 nM
Cc1nnsc1C(=O)O[C@]1(C(=O)SCC#N)CC[C@H]2[C@@H]3CCC4=Cc5c(cnn5-c5ccc(F)cc5)C[C@]4(C)[C@H]3[C@@H](O)C[C@@]21C [Example 6, (1R,3aS,3bS,10aR,10bS,11S,12aS)-1-{[(Cyanomethyl)thio]carbonyl}-7-(4-fluorophenyl)-11-hydroxy-10a,12a-dimethyl-1,2,3,3a,3b,4,5,7,10,10a,10b,11,12,12a-tetradecahydrocyclopenta[5,6]naphtho[1,2-f]indazol-1-yl 4-methyl-1,2,3-thiadiazole-5-carboxylate] | 5.9 nM
C[C@]12Cc3cnn(-c4ccc(F)cc4)c3C=C1CC[C@@H]1[C@@H]2[C@@H](O)C[C@@]2(C)[C@H]1CC[C@]2(OC(=O)c1ccco1)C(=O)SCC#N [Example 7, (1R,3aS,3bS,10aR,10bS,11S,12aS)-1-{[(Cyanomethyl)thio]carbonyl}-7-(4-fluorophenyl)-11-hydroxy-10a,12a-dimethyl-1,2,3,3a,3b,4,5,7,10,10a,10b,11,12,12a-tetradecahydrocyclopenta[5,6]naphtho[1,2-f]indazol-1-yl 2-furoate] | 5.6 nM
C[C@]12Cc3cnn(-c4ccc(F)cc4)c3C=C1CC[C@@H]1[C@@H]2[C@@H](O)C[C@@]2(C)[C@H]1CC[C@]2(OC(=O)c1ccco1)C(=O)SCF [Example 8, (1R,3aS,3bS,10aR,10bS,11S,12aS)-1-{[(Fluoromethyl)thio]carbonyl}-7-(4-fluorophenyl)-11-hydroxy-10a,12a-dimethyl-1,2,3,3a,3b,4,5,7,10,10a,10b,11,12,12a-tetradecahydrocyclopenta[5,6]naphtho[1,2-f]indazol-1-yl 2-furoate] | 4.7 nM
Cc1ncsc1C(=O)O[C@]1(C(=O)OCC#N)CC[C@H]2[C@@H]3CCC4=Cc5c(cnn5-c5ccc(F)cc5)C[C@]4(C)[C@H]3[C@@H](O)C[C@@]21C [Example 9, Cyanomethyl(1R,3aS,3bS,10aR,10bS,11S,12aS)-7-(4-fluorophenyl)-11-hydroxy-10a,12a-dimethyl-1-{[(4-methyl-1,3-thiazol-5-yl)carbonyl]oxy}-1,2,3,3a,3b,4,5,7,10,10a,10b,11,12,12a-tetradecahydrocyclopenta[5,6]naphtho[1,2-f]indazole-1-carboxylate] | 9.4 nM
CCC(=O)O[C@]1(C(=O)SCC#N)CC[C@H]2[C@@H]3CCC4=Cc5c(cnn5-c5ccc(F)cc5)C[C@]4(C)[C@H]3[C@@H](O)C[C@@]21C [Example 10, (1R,3aS,3bS,10aR,10bS,11S,12aS)-1-{[(Cyanomethyl)thio]carbonyl}-7-(4-fluorophenyl)-11-hydroxy-10a,12a-dimethyl-1,2,3,3a,3b,4,5,7,10,10a,10b,11,12,12a-tetradecahydrocyclopenta[5,6]naphtho[1,2-f]indazol-1-yl propionate] | 3.2 nM
CCC(=O)O[C@]1(C(=O)SCC(=O)OC)CC[C@H]2[C@@H]3CCC4=Cc5c(cnn5-c5ccc(F)cc5)C[C@]4(C)[C@H]3[C@@H](O)C[C@@]21C [Example 11, (1R,3aS,3bS,10aR,10bS,11S,12aS)-7-(4-Fluorophenyl)-11-hydroxy-1-{[(2-methoxy-2-oxoethyl)thio]carbonyl}-10a,12a-dimethyl-1,2,3,3a,3b,4,5,7,10,10a,10b,11,12,12a-tetradecahydrocyclopenta[5,6]naphtho[1,2-f]indazol-1-yl propanoate] | 3.8 nM
CCC(=O)O[C@]1(C(=O)SC(C)C#N)CC[C@H]2[C@@H]3CCC4=Cc5c(cnn5-c5ccc(F)cc5)C[C@]4(C)[C@H]3[C@@H](O)C[C@@]21C (stereo partly drawn) [Example 12, (1R,3aS,3bS,10aR,10bS,11S,12aS)-1-{[(1-Cyanoethyl)thio]carbonyl}-7-(4-fluoro-phenyl)-11-hydroxy-10a,12a-dimethyl-1,2,3,3a,3b,4,5,7,10,10a,10b,11,12,12a-tetradecahydrocyclopenta[5,6]naphtho[1,2-f]indazol-1-yl propanoate] | 5.8 nM
